For 28 compounds, IC50 results are on record in US20240101570A1 (AMGEN INC., priority 2020, published 2024).

A word on the pIC50: it is the negative decadic logarithm of the IC50, by convention in mol/L.

One assay concerns HCT116 MTAP null cells. Kind of assay: HCT116 MTAP null cell proliferation / viability (CellTiter-Glo, 6 days). In kind it is cell-based. Particulars: HCT116-MTAP null, 144 h, HCT116 MTAP null cells, 6 days, CellTiter-Glo; read-out: HCT-116 MTAP null IC50. In a few lines: (§1)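 IC50 values derive from sigmoidal dose-response fits, some with Hill slope fixed at −1 and top constrained to 100%, others from 4-parameter logistic models. They reflect CellTiter-Glo viability after 6 days of compound exposure at up to 10 or 50 μM.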
For orientation: ATP-based viability assays read luminescence as a measure of living cells.

The test system of the next assay is HCT116 WT cells. Nature of the assay: HCT116 WT cell proliferation / viability (CellTiter-Glo, 6 days). To be noted: Homo sapiens, HCT-116, 144 h, HCT116 WT cells, 6 days, CellTiter-Glo; read-out: HCT-116 WT IC50. In kind it is cell-based. In a few lines: as §1

SMILES strings stand for the structures. pIC50: −log10 of the molar value.

With `CN(CC(F)(F)c1ccc(Cl)cn1)C(=O)c1ccc2nc(N)c3cnn(C)c3c2c1` [Example 535, 4-amino-N-(2-(5-chloro-2-pyridinyl)-2,2-difluoroethyl)-N,1-dimethyl-1H-pyrazolo[4,3-c]quinoline-8-carboxamide], the pIC50 with HCT116 MTAP null cells is 6.07; in the assay on HCT116 WT cells, 5.16.

`C[C@@H]1OCc2c1c(N)nc1cnc(C(=O)N(Cc3ccc(OC(F)F)nn3)CC3CC3)cc21` [Example 425, (3S)-4-amino-N-(cyclopropylmethyl)-N-((6-(difluoromethoxy)-3-pyridazinyl)methyl)-3-methyl-1,3-dihydrofuro[3,4-c][1,7]naphthyridine-8-carboxamide]: the results for the pIC50 in the assay on HCT116 MTAP null cells and in the assay with HCT116 WT cells were 5.57 and below 4.30, respectively.

As to `C[C@H](c1ccc(F)cn1)N(C)C(=O)c1ccc2nc(N)c3cnn(C)c3c2c1` (single isomer, unassigned) [Example 604], the pIC50 in the assay with HCT116 MTAP null cells is 6.62; in the assay with HCT116 WT cells it was 4.61.

As to `COc1cc(C(F)(F)F)cnc1[C@@H](C)N(C)C(=O)c1cc2c(cc1F)nc(N)c1c2cnn1C` (single isomer, unassigned) [Example 866], the pIC50 was 6.51 in the assay on HCT116 MTAP null cells and 4.95 in the assay on HCT116 WT cells.

Take `C[C@H]1OCc2c1c(N)nc1cnc(C(=O)N(Cc3ccc(C(F)(F)F)nn3)C3CC3)cc21` [Example 405, (3R)-4-amino-N-cyclopropyl-3-methyl-N-((6-(trifluoromethyl)-3-pyridazinyl)methyl)-1,3-dihydrofuro[3,4-c][1,7]naphthyridine-8-carboxamide]: the pIC50 with HCT116 MTAP null cells was 6.44; in the assay with HCT116 WT cells it was below 5.00.

With `C[C@H]1OCc2c1c(N)nc1ccc(C(=O)N(Cc3ccc(C(F)(F)F)cn3)CC3(C)CC3)cc21` [Example 339, (3R)-4-amino-3-methyl-N-((1-methylcyclopropyl)methyl)-N-((5-(trifluoromethyl)-2-pyridinyl)methyl)-1,3-dihydrofuro[3,4-c]quinoline-8-carboxamide], the values for the negative-log IC50 (pIC50) in the assay on HCT116 MTAP null cells and in the assay with HCT116 WT cells were 7.60 and 6.21, respectively.

For `COc1cc(C(F)(F)F)cnc1[C@@H](C)N(C)C(=O)c1cc2c(cc1F)nc(N)c1cnn(C)c12` (single isomer, unassigned) [Example 867], the negative-log IC50 (pIC50) with HCT116 MTAP null cells is 6.80; with HCT116 WT cells it was 5.11.

For `Nc1nc2cnc(C(=O)N(Cc3ccc(C(F)(F)F)cn3)c3cnn(C4CC4)c3)cc2c2c1COC2` [Example 690, 4-amino-N-(1-cyclopropyl-1H-pyrazol-4-yl)-N-((5-(trifluoromethyl)-2-pyridinyl)methyl)-1,3-dihydrofuro[3,4-c][1,7]naphthyridine-8-carboxamide], the negative logarithm of the IC50 (pIC50) is 7.15 in the assay on HCT116 MTAP null cells and 5.38 in the assay with HCT116 WT cells.

For `CN(Cc1ccc(C(F)(F)C(F)(F)F)cc1)C(=O)c1cc2c(cc1F)nc(N)c1cnn(C)c12` [Example 563, 4-amino-7-fluoro-N,1-dimethyl-N-(4-(pentafluoroethyl)benzyl)-1H-pyrazolo[4,3-c]quinoline-8-carboxamide], the pIC50 in the assay on HCT116 MTAP null cells was 7.55; in the assay with HCT116 WT cells it was 5.68.

Take `CC1OCc2c1c(N)nc1ccc(C(=O)N(Cc3ccc(C(F)(F)F)cn3)C3CCOC3)cc21` (centres unmarked) [Example 899, 4-amino-3-methyl-N-(tetrahydrofuran-3-yl)-N-((5-(trifluoromethyl)pyridin-2-yl)methyl)-1,3-dihydrofuro[3,4-c]quinoline-8-carboxamide]: the negative-log IC50 (pIC50) with HCT116 MTAP null cells is 6.89; in the assay with HCT116 WT cells it was 5.01.

With `Nc1nc2cnc(C(=O)N(Cc3ccc(OC(F)F)nn3)CC3CC3)cc2c2c1COC2` [Example 418, 4-amino-N-(cyclopropylmethyl)-N-((6-(difluoromethoxy)-3-pyridazinyl)methyl)-1,3-dihydrofuro[3,4-c][1,7]naphthyridine-8-carboxamide], the pIC50 in the assay with HCT116 MTAP null cells is 6.77; with HCT116 WT cells, 5.20.

With `C[C@H]1OCc2c1c(N)nc1cnc(C(=O)N(C)Cc3ccc(C4CC4)cn3)cc21` [Example 415, (3R)-4-amino-N-((5-cyclopropyl-2-pyridinyl)methyl)-N,3-dimethyl-1,3-dihydrofuro[3,4-c][1,7]naphthyridine-8-carboxamide], the results for the pIC50 in the assay on HCT116 MTAP null cells and in the assay on HCT116 WT cells were 6.35 and 4.60, respectively.

On to `Cn1ncc2c(N)nc3cc(Cl)c(C(=O)N(Cc4ccc(C(F)(F)F)cn4)C4CC4)cc3c21` [Example 795, 4-amino-7-chloro-N-cyclopropyl-1-methyl-N-((5-(trifluoromethyl)-2-pyridinyl)methyl)-1H-pyrazolo[4,3-c]quinoline-8-carboxamide], for which the negative-log IC50 (pIC50) in the assay on HCT116 MTAP null cells was 8.10; in the assay with HCT116 WT cells, 6.42.

Turning to `Nc1nc2ccc(C(=O)N(Cc3ccc(N4CCOCC4)nn3)CC3CC3)cc2c2c1COC2` [Example 452, 4-amino-N-(cyclopropylmethyl)-N-((6-(4-morpholinyl)-3-pyridazinyl)methyl)-1,3-dihydrofuro[3,4-c]quinoline-8-carboxamide], the figures for the pIC50 in the assay on HCT116 MTAP null cells and in the assay with HCT116 WT cells were 7.33 and 5.80, respectively.

In the case of `CN(C(=O)c1cc2c3c(c(N)nc2cn1)COC3)C(c1ccc(C(F)(F)F)cn1)C1CC1` (racemic) [Example 764, 4-amino-N-((R)-cyclopropyl(5-(trifluoromethyl)-2-pyridinyl)methyl)-N-methyl-1,3-dihydrofuro[3,4-c][1,7]naphthyridine-8-carboxamide and 4-amino-N-((S)-cyclopropyl(5-(trifluoromethyl)-2-pyridinyl)methyl)-N-methyl-1,3-dihydrofuro[3,4-c][1,7]naphthyridine-8-carboxamide], the results for the pIC50 in the assay with HCT116 MTAP null cells and in the assay with HCT116 WT cells were 5.20 and below 4.30, respectively.

As for `CC(C)N(Cc1ccc(C(F)(F)F)cc1)C(=O)c1cc2c3c(c(N)nc2cn1)COC3` [Example 733, 4-amino-N-(2-propanyl)-N-(4-(trifluoromethyl)benzyl)-1,3-dihydrofuro[3,4-c][1,7]naphthyridine-8-carboxamide], the pIC50 was 6.54 in the assay with HCT116 MTAP null cells and 5.20 with HCT116 WT cells.

As for `C[C@H](c1ncccn1)N(Cc1ccc(C(F)(F)F)cn1)C(=O)c1ccc2nc(N)c3ccccc3c2c1` [Example 629, 6-amino-N-((1R)-1-(2-pyrimidinyl)ethyl)-N-((5-(trifluoromethyl)-2-pyridinyl)methyl)-2-phenanthridinecarboxamide], the negative-log IC50 (pIC50) in the assay with HCT116 MTAP null cells is 7.80; in the assay on HCT116 WT cells, 6.40.

As for `C[C@H](c1ccc(C(F)(F)F)nn1)N(C)C(=O)c1cc2c3c(c(N)nc2cc1F)COC3` (single isomer, unassigned) [Example 858], the pIC50 in the assay on HCT116 MTAP null cells is 7.39; with HCT116 WT cells, 5.48.

For `C[C@H](c1ncccn1)N(Cc1ccc(C(F)(F)F)cn1)C(=O)c1ccc2nc(N)c3ccncc3c2c1` [Example 633, 5-amino-N-((1R)-1-(2-pyrimidinyl)ethyl)-N-((5-(trifluoromethyl)-2-pyridinyl)methyl)benzo[c][2,6]naphthyridine-9-carboxamide], the negative-log IC50 (pIC50) was 7.89 in the assay with HCT116 MTAP null cells and 7.15 in the assay on HCT116 WT cells.

For the compound `Cc1nn(C)c2c1c(N)nc1cc(F)c(C(=O)N(Cc3ccc(C(F)(F)F)cn3)C(C)C)cc12` [Example 538, 4-amino-7-fluoro-1,3-dimethyl-N-(2-propanyl)-N-((5-(trifluoromethyl)-2-pyridinyl)methyl)-1H-pyrazolo[4,3-c]quinoline-8-carboxamide], the pIC50 in the assay with HCT116 MTAP null cells is 7.40; in the assay with HCT116 WT cells, 6.13.

Regarding `COC[C@H](C1CC1)N(Cc1ccc(Br)nn1)C(=O)c1cnc2nc(N)c3c(c2c1)COC3` (single isomer, unassigned) [Example 651], the negative logarithm of the IC50 (pIC50) with HCT116 MTAP null cells was 6.63; with HCT116 WT cells, 5.45.

On to `Nc1nc2cnc(C(=O)N(Cc3ccc(C(F)(F)F)nn3)C3CCC3)cc2c2c1COC2` [Example 721, 4-amino-N-cyclobutyl-N-((6-(trifluoromethyl)-3-pyridazinyl)methyl)-1,3-dihydrofuro[3,4-c][1,7]naphthyridine-8-carboxamide], for which the negative-log IC50 (pIC50) with HCT116 MTAP null cells was 6.68; in the assay with HCT116 WT cells, 5.03.

For the compound `C[C@H](c1ncc(C(F)(F)F)cc1F)N(C)C(=O)c1cc2c3c(c(N)nc2cc1F)COC3` (single isomer, unassigned) [Example 595], the pIC50 was 8.00 in the assay with HCT116 MTAP null cells and 6.17 in the assay on HCT116 WT cells.

Turning to `Nc1nc2ccc(C(=O)N(Cc3ccc(Br)nn3)CC3CC3)cc2c2c1COC2` [Example 674, 4-amino-N-((6-bromo-3-pyridazinyl)methyl)-N-(cyclopropylmethyl)-1,3-dihydrofuro[3,4-c]quinoline-8-carboxamide], the results for the negative logarithm of the IC50 (pIC50) with HCT116 MTAP null cells and in the assay on HCT116 WT cells were 7.14 and 5.59, respectively.

For the compound `CC(C)CN(Cc1ccc(C(F)(F)F)cn1)C(=O)c1cnc2nc(N)c3c(c2c1)COC3` [Example 612, 4-amino-N-(2-methylpropyl)-N-((5-(trifluoromethyl)-2-pyridinyl)methyl)-1,3-dihydrofuro[3,4-c][1,8]naphthyridine-8-carboxamide], the pIC50 with HCT116 MTAP null cells is 6.75; in the assay on HCT116 WT cells, 5.51.

As for `Nc1nc2ccc(C(=O)N(Cc3ccc(C(F)(F)F)nn3)C3COC3)cc2c2c1COC2` [Example 713, 4-amino-N-(3-oxetanyl)-N-((6-(trifluoromethyl)-3-pyridazinyl)methyl)-1,3-dihydrofuro[3,4-c]quinoline-8-carboxamide], the figures for the pIC50 in the assay on HCT116 MTAP null cells and with HCT116 WT cells were 5.29 and below 4.30, respectively.

Take `CC(C)N(Cc1ccc(C(F)(F)F)cn1)C(=O)c1cc2c(cn1)nc(N)c1ccncc12` [Example 756, 5-amino-N-(2-propanyl)-N-((5-(trifluoromethyl)-2-pyridinyl)methyl)pyrido[4,3-c][1,7]naphthyridine-9-carboxamide]: the pIC50 is 7.31 with HCT116 MTAP null cells and 6.13 in the assay on HCT116 WT cells.

Regarding `CCOC1CC1N(Cc1ccc(C(F)(F)F)cn1)C(=O)c1ccc2nc(N)c3c(c2c1)COC3C` (centres unmarked) [Example 907, 4-amino-N-(2-ethoxycyclopropyl)-3-methyl-N-((5-(trifluoromethyl)pyridin-2-yl)methyl)-1,3-dihydrofuro[3,4-c]quinoline-8-carboxamide], the results for the negative-log IC50 (pIC50) with HCT116 MTAP null cells and in the assay with HCT116 WT cells were 7.40 and below 6.00, respectively.
